Experimental findings from patent US10357493B2, “Metalloenzyme inhibitor compounds” (Selenity Therapeutics (Bermuda), Ltd., priority 2017, dated 2019) are described below.

Data set [1] in a line: Mouse Pharmacokinetics, oral single dose. It is filed as in vivo, male Swiss Albino mice. Conditions: male, Swiss Albino, plasma, 5 mg/kg, formulation by footnote: a 20% CremEL in H20, b 1% CMC in water, c 2% DMSO, 0.2% Tween80, 97.8% of 1% CMC. The method, then:
Example 187: Mouse Pharmacokinetics
A dose of 5 mg/kg in an appropriate formulation was administered by oral gavage to fasted male Swiss Albino mice (n=3), and the plasma was collected at 0, 0.25, 0.5, 1, 2, 4, 8, and 24 h. Plasma levels were measured by HPLC/MS/MS methods and the pharmacokinetic parameters were determined for individual animals from plasma concentration-time data using noncompartmental model 200-202 in Phoenix WinNonlin 6.3.

The target of a further data set is HDAC1 (Homo sapiens (Human), UniProt Q13547). Put plainly: HDAC1 enzymatic assay. The note with it: read-out: Human HDAC1 IC50. The class given is biochemical. In short, it runs like this:
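HDAC1 activity was measured in duplicate 50 μl reactions containing 0.5 ng HDAC1, 10 uM of HDAC substrate, and test compound in buffer (50 mM Tris-HCl, pH 7.4, 137 mM NaCl, 2.7 mM KCl, 0.05% Tween 20, 5 μg BSA) with 1% DMSO, incubated 17 hours at room temperature. HDAC Developer was then added for 20 minutes and fluorescence read at 360/460 nm.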

The target of another data set is HDAC6 (Homo sapiens (Human), UniProt Q9UBN7). Put plainly: HDAC6 enzymatic assay. The class given is biochemical. The note with it: read-out: Human HDAC6 IC50. In short, it runs like this: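 Human HDAC6 activity was measured in duplicate 50 μl reactions holding 2 ng HDAC6, 10 uM of HDAC substrate and test compound in HDAC assay buffer (50 mM Tris-HCl, pH 7.4, 137 mM NaCl, 2.7 mM KCl, 0.05% Tween 20, 5 μg BSA) with 1% DMSO, for 17 hours at room temperature. HDAC Developer was added for 20 minutes before reading fluorescence at 360/460 nm.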
Sequence of HDAC6 (Q9UBN7 whole entry): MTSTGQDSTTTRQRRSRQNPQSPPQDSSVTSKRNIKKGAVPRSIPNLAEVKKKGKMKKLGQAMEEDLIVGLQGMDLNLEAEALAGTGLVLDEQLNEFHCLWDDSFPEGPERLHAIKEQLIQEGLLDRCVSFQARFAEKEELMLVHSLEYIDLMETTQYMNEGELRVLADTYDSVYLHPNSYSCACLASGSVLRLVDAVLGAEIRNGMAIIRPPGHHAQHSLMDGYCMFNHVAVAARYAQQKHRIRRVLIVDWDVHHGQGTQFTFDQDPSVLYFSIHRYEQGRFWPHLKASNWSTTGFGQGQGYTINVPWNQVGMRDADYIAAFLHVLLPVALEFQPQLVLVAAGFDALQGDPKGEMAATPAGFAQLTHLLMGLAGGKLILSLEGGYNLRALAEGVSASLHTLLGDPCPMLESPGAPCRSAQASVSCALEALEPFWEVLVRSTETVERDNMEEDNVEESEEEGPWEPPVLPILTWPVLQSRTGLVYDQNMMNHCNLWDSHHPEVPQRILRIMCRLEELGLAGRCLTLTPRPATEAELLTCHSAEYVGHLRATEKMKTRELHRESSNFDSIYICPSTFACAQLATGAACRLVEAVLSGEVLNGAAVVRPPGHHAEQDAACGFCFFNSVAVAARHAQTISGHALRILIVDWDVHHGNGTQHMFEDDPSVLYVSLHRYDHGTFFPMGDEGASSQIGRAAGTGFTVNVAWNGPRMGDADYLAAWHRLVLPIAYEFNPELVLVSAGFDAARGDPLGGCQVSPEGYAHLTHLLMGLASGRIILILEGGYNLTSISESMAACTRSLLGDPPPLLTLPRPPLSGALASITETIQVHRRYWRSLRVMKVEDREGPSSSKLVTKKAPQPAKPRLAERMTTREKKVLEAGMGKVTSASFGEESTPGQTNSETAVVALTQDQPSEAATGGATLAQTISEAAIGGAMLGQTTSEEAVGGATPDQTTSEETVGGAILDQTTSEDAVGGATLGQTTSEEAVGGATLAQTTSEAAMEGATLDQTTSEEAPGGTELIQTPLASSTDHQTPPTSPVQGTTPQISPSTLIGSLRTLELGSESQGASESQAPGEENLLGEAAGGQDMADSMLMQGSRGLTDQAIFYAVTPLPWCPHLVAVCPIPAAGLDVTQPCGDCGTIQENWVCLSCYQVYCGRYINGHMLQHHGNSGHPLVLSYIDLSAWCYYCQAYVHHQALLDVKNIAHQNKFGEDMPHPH

SMILES strings stand for the structures.

Sequence of HDAC1 (Q13547 whole entry): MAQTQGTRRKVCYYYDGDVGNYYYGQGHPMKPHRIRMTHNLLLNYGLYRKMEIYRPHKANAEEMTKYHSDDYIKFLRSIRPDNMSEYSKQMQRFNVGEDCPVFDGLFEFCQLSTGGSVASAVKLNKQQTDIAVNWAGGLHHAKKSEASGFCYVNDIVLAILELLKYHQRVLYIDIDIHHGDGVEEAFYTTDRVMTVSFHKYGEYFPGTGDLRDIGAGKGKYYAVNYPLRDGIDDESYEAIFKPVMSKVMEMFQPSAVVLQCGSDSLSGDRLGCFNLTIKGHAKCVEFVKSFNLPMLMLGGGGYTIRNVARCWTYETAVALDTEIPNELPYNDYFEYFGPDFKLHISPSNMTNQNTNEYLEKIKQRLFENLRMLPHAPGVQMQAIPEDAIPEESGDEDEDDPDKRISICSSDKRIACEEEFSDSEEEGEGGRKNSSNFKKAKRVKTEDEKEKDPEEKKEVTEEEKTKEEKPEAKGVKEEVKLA

One may read the Cmax as the maximum level reached in the sampled fluid or tissue. The half-life is how long it takes for the measured level to halve. In data set [1], `CN(CC(Nc1ncc(-c2nnc(C(F)F)o2)cn1)c1ccc(F)cc1)S(C)(=O)=O` (single isomer, unassigned) [113(+), N-(2-((5-(5-(difluoromethyl)-1,3,4-oxadiazol-2-yl)pyrimidin-2-yl)amino)-2-(4-fluorophenyl)ethyl)-N-methylmethanesulfonamide] had a maximum concentration (Cmax) of 1360 ng/mL and a half-life of 3.5 h.

A word on the IC50: it is the concentration at which inhibition is half-maximal. In the case of `FC(F)c1nnc(-c2cnc(NC3(c4cccc(OCC(F)(F)F)c4Cl)CC3)nc2)o1` [Example 87, N-(1-(2-chloro-3-(2,2,2-trifluoroethoxy)phenyl)cyclopropyl)-5-(5-(difluoromethyl)-1,3,4-oxadiazol-2-yl)pyrimidin-2-amine], the IC50 is above 30000 nM at HDAC1 and 120 nM at HDAC6.

Turning to `Fc1ccc(C2(Nc3ncc(-c4nnc(C(F)F)o4)cn3)CCC2)cc1` [Example 88], the half-inhibitory concentration (IC50) is above 30000 nM on HDAC1 and 29 nM on HDAC6.

For the compound `FC(F)c1nnc(-c2cnc(NC3(c4cc(OCC(F)(F)F)ccc4Cl)CC3)nc2)o1` [Example 89, N-(1-(2-chloro-5-(2,2,2-trifluoroethoxy)phenyl)cyclopropyl)-5-(5-(difluoromethyl)-1,3,4-oxadiazol-2-yl)pyrimidin-2-amine], the IC50 on HDAC1 was above 30000 nM; on HDAC6, 100 nM.

With `Cc1ccc(Cl)c(C2(Nc3ncc(-c4nnc(C(F)F)o4)cn3)CC2)c1` [Example 90, N-(1-(2-chloro-5-methylphenyl)cyclopropyl)-5-(5-(difluoromethyl)-1,3,4-oxadiazol-2-yl)pyrimidin-2-amine], the IC50 on HDAC1 was above 30000 nM; at HDAC6 it was 35 nM.

As for `Fc1cccc(C2(Nc3ncc(-c4nnc(C(F)F)o4)cn3)CC2)c1Cl` [Example 91, N-(1-(2-chloro-3-fluorophenyl)cyclopropyl)-5-(5-(difluoromethyl)-1,3,4-oxadiazol-2-yl)pyrimidin-2-amine], the half-inhibitory concentration (IC50) was above 30000 nM on HDAC1 and 21 nM on HDAC6.

Take `CC(O)C(Nc1ncc(-c2nnc(C(F)F)o2)cn1)c1ccc(F)cc1F` (stereo not shown) [Example 93, 1-((5-(5-(difluoromethyl)-1,3,4-oxadiazol-2-yl)pyrimidin-2-yl)amino)-1-(2,4-difluorophenyl)propan-2-ol]: the results for the IC50 at HDAC1 and on HDAC6 were above 30000 nM and 43 nM, respectively.

For the compound `NCC(Nc1ncc(-c2nnc(C(F)F)o2)cn1)c1ccc(F)cc1` (stereo not shown) [Example 96, N1-(5-(5-(difluoromethyl)-1,3,4-oxadiazol-2-yl)pyrimidin-2-yl)-1-(4-fluorophenyl)ethane-1,2-diamine], the half-inhibitory concentration (IC50) is above 30000 nM at HDAC1 and 58 nM at HDAC6.

As to `CC(C)(Nc1ncc(-c2nnc(C(F)F)o2)cn1)c1ccc(F)cc1F` [Example 97, 5-(5-(difluoromethyl)-1,3,4-oxadiazol-2-yl)-N-(2-(2,4-difluorophenyl)propan-2-yl)pyrimidin-2-amine], the IC50 on HDAC1 is above 30000 nM; at HDAC6, 34 nM.

Consider `CC(C)(Nc1ncc(-c2nnc(C(F)F)o2)cn1)c1c(F)cccc1F` [Example 98, 5-(5-(difluoromethyl)-1,3,4-oxadiazol-2-yl)-N-(2-(2,6-difluorophenyl)propan-2-yl)pyrimidin-2-amine], for which the IC50 is above 30000 nM at HDAC1 and 16 nM on HDAC6.

For the compound `C[C@H](Nc1ncc(-c2nnc(C(F)F)o2)cn1)c1ccc(F)cc1F` [Example 99-S], the IC50 on HDAC1 is above 30000 nM; at HDAC6, above 1000 nM.

With `Fc1cccc(F)c1C(CC(F)(F)F)Nc1ncc(-c2nnc(C(F)F)o2)cn1` (stereo not shown) [Example 102, 5-(5-(difluoromethyl)-1,3,4-oxadiazol-2-yl)-N-(1-(2,6-difluorophenyl)-3,3,3-trifluoropropyl)pyrimidin-2-amine], the half-inhibitory concentration (IC50) was above 30000 nM on HDAC1 and 92 nM at HDAC6.

Turning to `COc1cc(F)c(C2(Nc3ncc(-c4nnc(C(F)F)o4)cn3)CC2)c(F)c1` [Example 106, N-(1-(2,6-difluoro-4-methoxyphenyl)cyclopropyl)-5-(5-(difluoromethyl)-1,3,4-oxadiazol-2-yl)pyrimidin-2-amine], the half-inhibitory concentration (IC50) on HDAC1 was above 30000 nM; on HDAC6 it was 16 nM.

As to `CCCS(=O)(=O)NCC(Nc1ncc(-c2nnc(C(F)F)o2)cn1)c1ccc(F)cc1` (stereo not shown) [Example 111, N-(2-((5-(5-(difluoromethyl)-1,3,4-oxadiazol-2-yl)pyrimidin-2-yl)amino)-2-(4-fluorophenyl)ethyl)propane-1-sulfonamide], the concentration for half-maximal inhibition (IC50) is above 30000 nM on HDAC1 and 32 nM at HDAC6.

Turning to `CC(C)CS(=O)(=O)NCC(Nc1ncc(-c2nnc(C(F)F)o2)cn1)c1ccc(F)cc1` (stereo not shown) [Example 112, N-(2-((5-(5-(difluoromethyl)-1,3,4-oxadiazol-2-yl)pyrimidin-2-yl)amino)-2-(4-fluorophenyl)ethyl)-2-methylpropane-1-sulfonamide], the values for the IC50 on HDAC1 and on HDAC6 were above 30000 nM and 32 nM, respectively.

With `CN(CC(Nc1ncc(-c2nnc(C(F)F)o2)cn1)c1ccc(F)cc1)S(C)(=O)=O` (stereo not shown) [Example 113, N-(2-((5-(5-(difluoromethyl)-1,3,4-oxadiazol-2-yl)pyrimidin-2-yl)amino)-2-(4-fluorophenyl)ethyl)-N-methylmethanesulfonamide], the figures for the IC50 at HDAC1 and at HDAC6 were above 30000 nM and 21 nM, respectively.

Turning to `O=C(NCC(Nc1ncc(-c2nnc(C(F)F)o2)cn1)c1ccc(F)cc1)C(F)(F)F` (stereo not shown) [Example 114, N-(2-((5-(5-(difluoromethyl)-1,3,4-oxadiazol-2-yl)pyrimidin-2-yl)amino)-2-(4-fluorophenyl)ethyl)-2,2,2-trifluoroacetamide], the half-inhibitory concentration (IC50) on HDAC1 was above 30000 nM; on HDAC6 it was 50 nM.

As to `CS(=O)(=O)N(CC(Nc1ncc(-c2nnc(C(F)F)o2)cn1)c1ccc(F)cc1)CC(F)(F)F` (stereo not shown) [Example 118, N-(2-((5-(5-(difluoromethyl)-1,3,4-oxadiazol-2-yl)pyrimidin-2-yl)amino)-2-(4-fluorophenyl)ethyl)-N-(2,2,2-trifluoroethyl)methanesulfonamide], the IC50 is above 30000 nM at HDAC1 and 72 nM on HDAC6.

Turning to `CS(=O)(=O)NCCC(Nc1ncc(-c2nnc(C(F)F)o2)cn1)c1ccc(F)cc1` (stereo not shown) [Example 125, N-(3-((5-(5-(difluoromethyl)-1,3,4-oxadiazol-2-yl)pyrimidin-2-yl)amino)-3-(4-fluorophenyl)propyl)methanesulfonamide], the IC50 on HDAC1 was above 30000 nM; at HDAC6 it was 26 nM.

Take `CS(=O)(=O)Nc1cccc(C(Nc2ncc(-c3nnc(C(F)F)o3)cn2)c2ccc(F)cc2)c1` (stereo not shown) [Example 128, N-(3-(((5-(5-(difluoromethyl)-1,3,4-oxadiazol-2-yl)pyrimidin-2-yl)amino)(4-fluorophenyl)methyl)phenyl)methanesulfonamide]: the figures for the IC50 at HDAC1 and at HDAC6 were above 30000 nM and 130 nM, respectively.

For `CS(=O)(=O)Nc1ccc(C(Nc2ncc(-c3nnc(C(F)F)o3)cn2)c2ccc(F)cc2)cc1` (stereo not shown) [Example 129, N-(4-(((5-(5-(difluoromethyl)-1,3,4-oxadiazol-2-yl)pyrimidin-2-yl)amino)(4-fluorophenyl)methyl)phenyl)methanesulfonamide], the 50% inhibitory concentration (IC50) is above 30000 nM on HDAC1 and 250 nM on HDAC6.

Regarding `CS(=O)(=O)Nc1ccccc1C(Nc1ncc(-c2nnc(C(F)F)o2)cn1)c1ccc(F)cc1` (stereo not shown) [Example 130, N-(2-(((5-(5-(difluoromethyl)-1,3,4-oxadiazol-2-yl)pyrimidin-2-yl)amino)(4-fluorophenyl)methyl)phenyl)methanesulfonamide], the IC50 is above 30000 nM on HDAC1 and 190 nM at HDAC6.

For `CS(=O)(=O)Nc1ccccc1CC(Nc1ncc(-c2nnc(C(F)F)o2)cn1)c1ccc(F)cc1` (stereo not shown) [Example 131, N-(2-(2-((5-(5-(difluoromethyl)-1,3,4-oxadiazol-2-yl)pyrimidin-2-yl)amino)-2-(4-fluorophenyl)ethyl)phenyl)methanesulfonamide], the values for the half-inhibitory concentration (IC50) at HDAC1 and at HDAC6 were above 30000 nM and 58 nM, respectively.

On to `CS(=O)(=O)Nc1cccc(CC(Nc2ncc(-c3nnc(C(F)F)o3)cn2)c2ccc(F)cc2)c1` (stereo not shown) [Example 132, N-(3-(2-((5-(5-(difluoromethyl)-1,3,4-oxadiazol-2-yl)pyrimidin-2-yl)amino)-2-(4-fluorophenyl)ethyl)phenyl)methanesulfonamide], for which the IC50 is above 30000 nM at HDAC1 and 83 nM on HDAC6.

`CS(=O)(=O)Nc1ccc(CC(Nc2ncc(-c3nnc(C(F)F)o3)cn2)c2ccc(F)cc2)cc1` (stereo not shown) [Example 133, N-(4-(2-((5-(5-(difluoromethyl)-1,3,4-oxadiazol-2-yl)pyrimidin-2-yl)amino)-2-(4-fluorophenyl)ethyl)phenyl)methanesulfonamide]: the IC50 is above 30000 nM at HDAC1 and 330 nM at HDAC6.

In data set [1], `O=C(CCCCCCNC(=O)c1cnc(N(c2ccccc2)c2ccccc2)nc1)NO` [Ricolinostat, ricolinostat, reference compound] gave a Cmax of 47 ng/mL and a half-life of 2.7 h.
